Patent US8501689B2, “Growth factor-mimicking peptides and uses thereof” (Caragen Co., Ltd., priority 2008, dated 2013)
Where no end group is shown, it is not given here.

Assays:
Type in all cases: cell-based
NIH3T3 fibroblasts = test: SRB colorimetric assay, growth of NIH3T3 fibroblasts; settings: NIH3T3, 10 ng/ml or 1,000 ng/ml, 72 hr, serum-free medium, absorbance at 590 nm, FIG. 3b
Procedure: (§1) In order to evaluate four peptides prepared in Preparation Examples 1-2 whether they have similar activities of growth factor-1, SRB (Sulforhodamine B; Sigma-Aldrich) colorimetric assay was carried out using HaCaT keratinocytes and NIH3T3 fibroblasts according to Rizzino et al. method (Rizzino, et al. Cancer Res., 48: 4266 (1988)).
HaCaT keratinocytes (The Korean Cell Line Bank) and NIH3T3 fibroblasts (The Korean Cell Line Bank) were cultured in 250 ml-flasks containing EMEM (Eagle's minimal essential media; Gibco, U.S.A.) supplemented with 10% FBS (fetal bovine serum). Cells cultured were treated with 0.25% trypsin solution to detach cells from the bottom of culture flasks and centrifuged to collect cell pellets. After cells were resuspended in EMEM not containing FBS, its aliquot (4×10^3 cells)was added to each well of 96-well plates and cultured under 7% CO2 for 24 hr at 37° C. After 24-hr culture, the medium was changed with a fresh medium not containing serum and cells were incubated with human aFGF (NIBSC, UK) or four peptides synthesized (10 ng/ml or 1,000 ng/ml) dissolved in water and 10% DMSO for 72 hr under the same conditions as described above. After removing supernatants, cells were washed once using PBS (phosphate buffered saline) and incubated with SRB solution. […] In addition, absorbance at 590 nm was measured to analyze cell proliferation. […]

procollagen = test: Procollagen ELISA in HaCaT keratinocytes; settings: HaCaT incubated with peptides for 72 hr, FIG. 5a
Procedure: (§2) HaCaT keratinocytes cultured for 48 hr were incubated with the peptides of the present invention for 72 hr. The levels of procollagen and fibronectin, indicators to show the improvement in skin wrinkle, were examined. The quantification was performed using Procollagen ELISA kit (Takara, Japan) and Fibronectin ELISA kit (CHEMICON, USA).

HaCaT keratinocytes = test: SRB colorimetric assay, growth of HaCaT keratinocytes; settings: 10 ng/ml or 1,000 ng/ml, 72 hr, serum-free medium, absorbance at 590 nm, FIG. 3a
Procedure: as §1
HaCaT keratinocytes (The Korean Cell Line Bank) and NIH3T3 fibroblasts (The Korean Cell Line Bank) were cultured in 250 ml-flasks containing EMEM (Eagle's minimal essential media; Gibco, U.S.A.) supplemented with 10% FBS (fetal bovine serum). Cells cultured were treated with 0.25% trypsin solution to detach cells from the bottom of culture flasks and centrifuged to collect cell pellets. After cells were resuspended in EMEM not containing FBS, its aliquot (4×10^3 cells)was added to each well of 96-well plates and cultured under 7% CO2 for 24 hr at 37° C. After 24-hr culture, the medium was changed with a fresh medium not containing serum and cells were incubated with human aFGF (NIBSC, UK) or four peptides synthesized (10 ng/ml or 1,000 ng/ml) dissolved in water and 10% DMSO for 72 hr under the same conditions as described above. After removing supernatants, cells were washed once using PBS (phosphate buffered saline) and incubated with SRB solution. Cells were sufficiently washed with PBS and observed under a microscope to find cell viability. In addition, absorbance at 590 nm was measured to analyze cell proliferation.
FIG. 3a and FIG. 3b represent the analysis data for growth of keratinocytes and fibroblasts, respectively. FIG. 4 represents the growth pattern of keratinocytes and fibroblasts observed under microscope after 72 hr-treatment with peptides.

fibronectin = test: Fibronectin ELISA in HaCaT keratinocytes; settings: HaCaT incubated with peptides for 72 hr, FIG. 5b
Procedure: as §2

Substance	growth of fibroblasts (NIH3T3 fibroblasts)	level of procollagen in keratinocytes (procollagen)	growth of keratinocytes (HaCaT keratinocytes)	level of fibronectin in keratinocytes (fibronectin)
YISKKHAGKNWF [corresponds to amino acids 111-122 of aFGF]	excellent effects on growth of fibroblasts	remarkably promote the production of procollagen	–	–
DSHTQYCFHGT [compound 3, corresponds to amino acids 10-20 of TGF-α]	–	–	much better effects on growth of keratinocytes	–
Ac-YKSKKGGWTH [peptide 1]	excellent effects on growth of fibroblasts	–	much better effects on growth of keratinocytes	strikingly facilitate the production of procollagen
GYVGVRCEAADLDA [compound 4, corresponds to amino acids 38-49 of TGF-α]	–	–	much better effects on growth of keratinocytes	strikingly facilitate the production of procollagen
